Results reported in patent US12559529B2, “NPY2 receptor agonists” (Boehringer Ingelheim International GmbH, priority 2019, dated 2026).
pKi: −log10 of the molar value. *1 amine or outer side, *2 acyl side, *3 side chain or, on linkers, in order; H or OH if unused. Where a SMILES comes first, the peptide text is derived from it. Side-chain parts run from the residue outwards. The star is where a group is joined. C18 diacid = O=C(O)CCCCCCCCCCCCCCCCC(=O)*; γGlu = O=C(O)[C@H](CCC(=O)[*:2])N[*:1]; Isovaleryl = CC(C)CC(=O)*; AEEA = NCCOCCOCC(=O)O

Target: T1, Human Neuropeptide Y2 Receptor (Homo sapiens, UniProt P49146)
T1 construct: purchased CHEMICON HTS066M
T1 sequence (P49146 1-381): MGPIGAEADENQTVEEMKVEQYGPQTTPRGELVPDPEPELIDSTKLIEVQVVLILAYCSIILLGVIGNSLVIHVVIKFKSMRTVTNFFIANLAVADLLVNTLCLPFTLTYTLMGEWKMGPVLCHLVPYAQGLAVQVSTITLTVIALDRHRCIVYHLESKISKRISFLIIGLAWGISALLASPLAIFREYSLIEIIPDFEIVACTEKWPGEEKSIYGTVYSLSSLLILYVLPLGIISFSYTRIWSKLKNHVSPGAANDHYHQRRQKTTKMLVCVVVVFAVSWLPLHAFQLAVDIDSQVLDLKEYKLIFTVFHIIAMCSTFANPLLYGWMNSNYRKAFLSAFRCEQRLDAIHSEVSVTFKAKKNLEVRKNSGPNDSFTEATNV
Test: Radioligand binding competition assay (RLB)
Details: Table 3; human 125I-PYY (1-36) 0.02 nM, Y2 receptor membranes; read-out: Ki
Summary of the method: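 Peptide dilutions made in pH 7.4 HEPES assay buffer with 0.2% ovalbumin; human Y2 receptor membranes added at 0.5 μg protein/well; plates shaken 2 h at room temperature; reaction stopped by vacuum filtration onto PEI-treated GF/C filters with ice-cold high-salt washes; radioactivity counted by scintillation.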

Structure (SMILES) | pKi
CC(C)CC(=O)N[C@@H](C)C(=O)N1CCC[C@H]1C(=O)N[C@@H](CCC(=O)O)C(=O)N[C@@H](CCCCNC(=O)COCCOCCNC(=O)COCCOCCNC(=O)CC[C@H](NC(=O)CCCCCCCCCCCCCCCCC(=O)O)C(=O)O)C(=O)N1CCC[C@H]1C(=O)N[C@@H](CCC(=O)O)C(=O)N[C@@H](CCC(=O)O)C(=O)N[C@@H](CC(=O)O)C(=O)N[C@@H](C)C(=O)N[C@@H](CO)C(=O)N1CCC[C@H]1C(=O)N[C@@H](CCC(=O)O)C(=O)N[C@@H](CCC(=O)O)C(=O)N[C@@H](CC(C)C)C(=O)N[C@@H](CCC(N)=O)C(=O)N[C@@H](CCCNC(=N)N)C(=O)N[C@@H](Cc1ccc(O)cc1)C(=O)N[C@@H](Cc1ccc(O)cc1)C(=O)N[C@H](C(=O)N[C@@H](CO)C(=O)N[C@@H](C)C(=O)N[C@@H](CCCNC(=N)N)C(=O)N[C@@H](Cc1c[nH]cn1)C(=O)N[C@@H](Cc1ccc(O)cc1)C(=O)N[C@@H](Cc1ccc(O)cc1)C(=O)N[C@@H](CC(N)=O)C(=O)N[C@@H](Cc1c[nH]c2ccccc12)C(=O)N[C@@H](CC(C)C)C(=O)N[C@H](C(=O)N[C@@H](CCCNC(=N)N)C(=O)N[C@@H](CCC(N)=O)C(=O)N[C@@H](CCCNC(=N)N)C(=O)N[C@@H](Cc1ccc(O)cc1)C(N)=O)[C@@H](C)O)C(C)C [Compound 229, N{alpha-4}-(3-methylbutanoyl)-N{epsilon-7}-[2-(2-{2-[2-(2-{2-[(4S)-4-carboxy-4-(17-carboxyheptadecanamido)butanamido]ethoxy}ethoxy)acetamido]ethoxy}ethoxy)acetamido]-[4A,7K,9E,18Q,22V,24A,28Y,30W,31L]hPYY (4-36)] | 8.55
CC(C)CC(=O)N[C@@H](C)C(=O)N1CCC[C@H]1C(=O)N[C@@H](C)C(=O)N[C@@H](CCCCNC(=O)COCCOCCNC(=O)COCCOCCNC(=O)CC[C@H](NC(=O)CCCCCCCCCCCCCCCCC(=O)O)C(=O)O)C(=O)N1CCC[C@H]1C(=O)N1CCC[C@H]1C(=O)N[C@@H](CCC(=O)O)C(=O)N[C@@H](CC(=O)O)C(=O)N[C@@H](C)C(=O)N[C@@H](CO)C(=O)N1CCC[C@H]1C(=O)N[C@@H](CCC(=O)O)C(=O)N[C@@H](CCC(=O)O)C(=O)N[C@@H](CC(C)C)C(=O)N[C@@H](CCC(N)=O)C(=O)N[C@@H](CCCNC(=N)N)C(=O)N[C@@H](Cc1ccc(O)cc1)C(=O)N[C@@H](Cc1ccc(O)cc1)C(=O)N[C@H](C(=O)N[C@@H](CCC(=O)O)C(=O)N[C@@H](CC(C)C)C(=O)N[C@@H](CCCNC(=N)N)C(=O)N[C@@H](Cc1c[nH]cn1)C(=O)N[C@@H](Cc1ccc(O)cc1)C(=O)N[C@@H](Cc1ccc(O)cc1)C(=O)N[C@@H](CC(N)=O)C(=O)N[C@@H](Cc1c[nH]c2ccccc12)C(=O)N[C@@H](CC(C)C)C(=O)N[C@H](C(=O)N[C@@H](CCCNC(=N)N)C(=O)N[C@@H](CCC(N)=O)C(=O)N[C@@H](CCCNC(=N)N)C(=O)N[C@@H](Cc1ccc(O)cc1)C(N)=O)[C@@H](C)O)C(C)C [Compound 232, N{alpha-4}-(3-methylbutanoyl)-N{epsilon-7}-[2-(2-{2-[2-(2-{2-[(4S)-4-carboxy-4-(17-carboxyheptadecanamido)butanamido]ethoxy}ethoxy)acetamido]ethoxy}ethoxy)acetamido]-[4A,6A,7K,9P,18Q,22V,23E,28Y,30W,31L]hPYY (4-36)] | 9.09
CC(C)CC(=O)N[C@@H](C)C(=O)N1CCC[C@H]1C(=O)N[C@@H](CCC(=O)O)C(=O)N[C@@H](CCCCNC(=O)COCCOCCNC(=O)COCCOCCNC(=O)CC[C@H](NC(=O)CCCCCCCCCCCCCCCCC(=O)O)C(=O)O)C(=O)N[C@H](C(=O)N[C@@H](CCC(=O)O)C(=O)N[C@@H](CCC(=O)O)C(=O)N[C@@H](CCC(=O)O)C(=O)N[C@@H](C)C(=O)N[C@@H](CO)C(=O)N1CCC[C@H]1C(=O)N[C@@H](CCC(=O)O)C(=O)N[C@@H](CCC(=O)O)C(=O)N[C@@H](CC(C)C)C(=O)N[C@@H](CCC(N)=O)C(=O)N[C@@H](CCCNC(=N)N)C(=O)N[C@@H](Cc1ccc(O)cc1)C(=O)N[C@@H](Cc1ccc(O)cc1)C(=O)N[C@H](C(=O)N[C@@H](CO)C(=O)N[C@@H](CC(C)C)C(=O)N[C@@H](CCCNC(=N)N)C(=O)N[C@@H](Cc1c[nH]cn1)C(=O)N[C@@H](Cc1ccc(O)cc1)C(=O)N[C@@H](Cc1ccc(O)cc1)C(=O)N[C@@H](CC(N)=O)C(=O)N[C@@H](Cc1c[nH]c2ccccc12)C(=O)N[C@@H](CC(C)C)C(=O)N[C@H](C(=O)N[C@@H](CCCNC(=N)N)C(=O)N[C@@H](CCC(N)=O)C(=O)N[C@@H](CCCNC(=N)N)C(=O)N[C@@H](Cc1ccc(O)cc1)C(N)=O)[C@@H](C)O)C(C)C)[C@@H](C)O [Compound 238, N{alpha-4}-(3-methylbutanoyl)-N{epsilon-7}-[2-(2-{2-[2-(2-{2-[(4S)-4-carboxy-4-(17-carboxyheptadecanamido)butanamido]ethoxy}ethoxy)acetamido]ethoxy}ethoxy)acetamido]-[4A,7K,8T,9E,11E,18Q,22V,28Y,30W,31L]hPYY (4-36)] (Isovaleryl-APEK([AEEA-AEEA-γGlu-C18 diacid])TEEEASPEELQRYYVSLRHYYNWLTRQRY-NH2) | 7.60
CC(C)CC(=O)N[C@@H](C)C(=O)N1CCC[C@H]1C(=O)N[C@@H](CCC(=O)O)C(=O)N[C@@H](CCCCNC(=O)COCCOCCNC(=O)COCCOCCNC(=O)CC[C@H](NC(=O)CCCCCCCCCCCCCCCCC(=O)O)C(=O)O)C(=O)N1CCC[C@H]1C(=O)N[C@@H](CCC(=O)O)C(=O)N[C@@H](C)C(=O)N[C@@H](CC(=O)O)C(=O)N[C@@H](C)C(=O)N[C@@H](CO)C(=O)N[C@@H](C)C(=O)N[C@@H](CCC(=O)O)C(=O)N[C@@H](CCC(=O)O)C(=O)N[C@@H](CC(C)C)C(=O)N[C@@H](CCC(N)=O)C(=O)N[C@@H](CCCNC(=N)N)C(=O)N[C@@H](Cc1ccc(O)cc1)C(=O)N[C@@H](Cc1ccc(O)cc1)C(=O)N[C@H](C(=O)N[C@@H](CO)C(=O)N[C@@H](CC(C)C)C(=O)N[C@@H](CCCNC(=N)N)C(=O)N[C@@H](Cc1c[nH]cn1)C(=O)N[C@@H](Cc1ccc(O)cc1)C(=O)N[C@@H](Cc1ccc(O)cc1)C(=O)N[C@@H](CC(N)=O)C(=O)N[C@@H](Cc1c[nH]c2ccccc12)C(=O)N[C@@H](CC(C)C)C(=O)N[C@H](C(=O)N[C@@H](CCCNC(=N)N)C(=O)N[C@@H](CCC(N)=O)C(=O)N[C@@H](CCCNC(=N)N)C(=O)N[C@@H](Cc1ccc(O)cc1)C(N)=O)[C@@H](C)O)C(C)C [Compound 242, N{alpha-4}-(3-methylbutanoyl)-N{epsilon-7}-[2-(2-{2-[2-(2-{2-[(4S)-4-carboxy-4-(17-carboxyheptadecanamido)butanamido]ethoxy}ethoxy)acetamido]ethoxy}ethoxy)acetamido]-[4A,7K,9E,10A,14A,18Q,22V,28Y,30W,31L]hPYY (4-36)] | 9.09
